The test system of data set [1] is HCT-116. The data set is described as follows: Cytotoxicity against human HCT-116 cells assessed as inhibition of cell growth at 10 uM measured after 24 hrs by MTT assay (reference value: 0.17%). It counts as functional. (In general: Tetrazolium assays rely on reduction of a dye to a coloured formazan, in cell work by metabolically active cells.)
The next data set relates to HepG2. Put plainly: Cytotoxicity against human HepG2 cells assessed as inhibition of cell growth at 10 uM measured after 24 hrs by MTT assay (reference value: 0.21%). The data set is classed as functional.
Data set [2] has as its system PA-1. The data set is described as follows: Cytotoxicity against human PA-1 cells assessed as inhibition of cell growth at 10 uM measured after 24 hrs by MTT assay (reference value: 0.19%). The data set is classed as functional.
Data set [3] is described as follows: Cytotoxicity against human HEK cells assessed as inhibition of cell growth at 10 uM measured after 24 hrs by MTT assay (reference value: 0.11%). The data set is classed as cell-based.
For data set [4], the target named is T1, RAC-alpha serine/threonine-protein kinase (Homo sapiens, UniProt P31749). Put plainly: Binding affinity to Akt1 (unknown origin).
T1 sequence (P31749 whole entry): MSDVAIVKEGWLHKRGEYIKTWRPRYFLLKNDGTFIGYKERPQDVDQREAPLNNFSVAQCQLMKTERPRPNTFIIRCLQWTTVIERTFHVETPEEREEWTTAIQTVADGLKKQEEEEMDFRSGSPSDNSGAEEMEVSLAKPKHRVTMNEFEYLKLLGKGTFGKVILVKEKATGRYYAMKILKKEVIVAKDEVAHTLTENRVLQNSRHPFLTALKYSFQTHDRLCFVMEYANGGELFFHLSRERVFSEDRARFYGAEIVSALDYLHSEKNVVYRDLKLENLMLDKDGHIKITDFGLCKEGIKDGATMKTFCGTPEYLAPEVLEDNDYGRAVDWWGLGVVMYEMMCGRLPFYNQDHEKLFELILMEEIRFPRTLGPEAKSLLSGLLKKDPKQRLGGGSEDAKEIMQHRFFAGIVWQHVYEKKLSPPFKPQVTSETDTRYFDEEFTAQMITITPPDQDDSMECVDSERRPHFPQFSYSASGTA
For data set [5], the target named is RAC-beta serine/threonine-protein kinase (Homo sapiens) (UniProt P31751). The data set is described as follows: Binding affinity to Akt2 (unknown origin).
RAC-beta serine/threonine-protein kinase (Homo sapiens), sequence (P31751 whole entry): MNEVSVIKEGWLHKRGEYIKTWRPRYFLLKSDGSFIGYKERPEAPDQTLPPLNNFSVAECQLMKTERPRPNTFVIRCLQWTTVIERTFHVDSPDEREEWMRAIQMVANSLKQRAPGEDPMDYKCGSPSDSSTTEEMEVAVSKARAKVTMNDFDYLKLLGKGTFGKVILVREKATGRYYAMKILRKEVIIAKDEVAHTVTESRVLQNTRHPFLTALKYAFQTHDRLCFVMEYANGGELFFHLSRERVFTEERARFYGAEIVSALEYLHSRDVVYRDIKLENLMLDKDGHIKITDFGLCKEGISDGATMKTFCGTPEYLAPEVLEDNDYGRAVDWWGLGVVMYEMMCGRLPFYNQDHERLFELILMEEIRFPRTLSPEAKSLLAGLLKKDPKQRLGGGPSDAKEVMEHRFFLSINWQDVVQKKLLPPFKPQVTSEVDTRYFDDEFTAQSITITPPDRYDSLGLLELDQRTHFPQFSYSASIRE
The test system of data set [6] is PANC-1. Put plainly: Inhibition of human Akt in human PANC-1 cells assessed as inhibition of Akt phosphorylation at 50 uM measured after 18 hrs by Western blot assay. It counts as cell-based.
The subject of data set [7] is PANC-1. The data set is described as follows: Inhibition of human Akt in human PANC-1 cells assessed as cell growth arrest at 50 uM measured after 18 hrs by Western blot assay. The data set is classed as cell-based. On the technique in general: In western blotting, separated proteins are transferred to a membrane and probed.
The test system of data set [8] is PANC-1. The data set is described as follows: Cytotoxicity against human PANC-1 cells assessed as decrease in cell viability at 50 uM measured after 18 hrs by MTT assay. The data set is classed as functional, cell-based.
Data set [9] can be described thus: Inhibition of Protein kinase A (unknown origin). The arrangement: species or system Homo sapiens.
Data set [10] can be described thus: Toxicity in zebra fish embryo measured 5 days post fertilization by measuring teratogenicity at 1 to 100 uM. Particulars: zebrafish, 120 h, dose 1-100 µM, time 5 day. Details: species or system Danio rerio.
The nature of data set [11]: Hepatotoxicity in 4 days post fertilize zebra fish embryo measured 7 days post fertilization at 1 to 100 uM. Particulars: zebrafish, dose 1-100 µM. It counts as toxicity, Danio rerio.
Data set [12] in a line: Toxicity in 7 days post fertilize zebrafish embryo assessed as morphological abnormalities or atrioventricular blocks measured after 24 hrs by bright field microscopic analysis. Details: species or system Danio rerio. Particulars: in vivo, dose 1-100 µM.
Data set [13] in a line: Toxicity in 7 days post fertilize zebrafish embryo assessed as death at 1 to 100 uM after 24 hrs. Details: species or system Danio rerio. As to conditions: in vivo, dose 1-100 µM.
The nature of data set [14]: Toxicity in 7 days post fertilize zebrafish embryo assessed as morphological abnormalities at 1 to 100 uM after 24 hrs. The arrangement: species or system Danio rerio. As to conditions: in vivo, dose 1-100 µM.
Data set [15] deals with T1, RAC-alpha serine/threonine-protein kinase.
Description: Inhibition of Akt-1 (unknown origin)
Data set [16] relates to HCT-116. The data set is described as follows: Cytotoxicity against human HCT-116 cells assessed as inhibition of cell growth measured after 24 hrs by MTT assay. The data set is classed as functional, cell-based. As to conditions: HCT-116, 24 h.
For data set [17], the system named is PA-1. Put plainly: Cytotoxicity against human PA-1 cells assessed as inhibition of cell growth measured after 24 hrs by MTT assay. Particulars: PA-1, 24 h. The data set is classed as functional, cell-based.
Data set [18] can be described thus: Stability of compound assessed as parent compound remaining after 60 mins in rat liver microsomes. The data set is classed as ADME, Microsome. As to conditions: read-out: Stabilty. Background: Liver microsomes are a subcellular fraction often used to study metabolism.
A short description of data set [19]: Microsomal stability in rat liver microsomes assessed as half life. The data set is classed as ADME, Microsome.
Data set [20] in a line: Microsomal stability in rat liver microsomes assessed as intrinsic clearance. The data set is classed as ADME, Microsome. As to conditions: read-out: CLH.

Active and inactive are the calls of the source.

Take `Cc1ccc2cc(COCc3c(-c4ccc(F)cc4)nc(N(C)S(C)(=O)=O)nc3C(C)C)oc(=O)c2c1`: the inhibition at 10 µM with HCT-116 [1] is 26%; with HepG2, 24.1%; with PA-1 [2], 28.4%. Moreover, in data set [3], the inhibition at 24 h, 10 µM was determined as 3.2%.
For the compound `CC(C)c1nc(N(C)S(C)(=O)=O)nc(-c2ccc(F)cc2)c1COC/C=C1\OC(=O)c2cc(Br)ccc21`, the inhibition at 10 µM with HCT-116 [1] was determined as 13.6%; in the data set on HepG2, 20.4%; with PA-1 [2], 21.8%. The inhibition at 24 h, 10 µM in data set [3] is 1.9%.
The corresponding values for `CC(C)c1nc(N(C)S(C)(=O)=O)nc(-c2ccc(F)cc2)c1COC/C=C1\OC(=O)c2cc(F)ccc21` are 18.3%, 26.7%, 18.9% and 3.1%.
The corresponding values for `CC(C)c1nc(N(C)S(C)(=O)=O)nc(-c2ccc(F)cc2)c1COC/C=C1\OC(=O)c2cccc(Cl)c21` are 25.5%, 22.1%, 26.8% and 3.7%.
With `CC(C)c1nc(N(C)S(C)(=O)=O)nc(-c2ccc(F)cc2)c1COCc1cc2cc(Cl)ccc2c(=O)o1`, the inhibition at 10 µM in the data set on HCT-116 [1] was determined as 19.8%; with HepG2, 10.9%; with PA-1 [2], 16.8%. Moreover, in [3], the inhibition at 24 h, 10 µM turned out to be 1.3%.
`CC(C)c1nc(N(C)S(C)(=O)=O)nc(-c2ccc(F)cc2)c1COCc1cc2ccc(Br)cc2c(=O)o1`: the inhibition at 10 µM with HCT-116 [1] stood at 21.7%; with HepG2, 23.5%; in the data set on PA-1 [2] it was 18.7%. For the same compound, in [3], the inhibition at 24 h, 10 µM was 2.8%.
As to `COc1cccc2c1C(=O)c1c(O)c3c(c(O)c1C2=O)C[C@@](O)(C(=O)CO)C[C@@H]3O[C@H]1C[C@H](N)[C@H](O)[C@H](C)O1` [DOXORUBICIN], the results for the inhibition at 10 µM in the data set on HCT-116 [1], with HepG2 and in the data set on PA-1 [2] were 61%, 57% and 81.3%, respectively. In addition, the Activity in data set [4] was -36.8 kJ/mol; in data set [5], -36 kJ/mol.
As to `CC(C)c1nc(N(C)S(C)(=O)=O)nc(-c2ccc(F)cc2)c1COC/C=C1\OC(=O)c2cc(Cl)ccc21`, the inhibition at 10 µM with HCT-116 [1] was determined as 24.7%; with HepG2 it was 21.3%; in the data set with PA-1 [2], 27%. In addition, in [3], the inhibition at 24 h, 10 µM amounted to 2.9%.
For `COc1ccc2c(c1)/C(=C/COCc1c(-c3ccc(F)cc3)nc(N(C)S(C)(=O)=O)nc1C(C)C)OC2=O` the same measures were 35.1%, 38.6%, 38.3% and 3.8%.
For `Cc1ccc2c(c1C)/C(=C/COCc1c(-c3ccc(F)cc3)nc(N(C)S(C)(=O)=O)nc1C(C)C)OC2=O`, the inhibition at 10 µM worked out at 18.9% in the data set on HCT-116 [1], 21.6% in the data set with HepG2 and 19.9% in the data set with PA-1 [2]. In data set [3], the inhibition at 24 h, 10 µM is 1.9%.
For the compound `COc1cc2c(cc1OC)/C(=C/COCc1c(-c3ccc(F)cc3)nc(N(C)S(C)(=O)=O)nc1C(C)C)OC2=O`, the results for the inhibition at 10 µM in the data set on HCT-116 [1], in the data set with HepG2 and in the data set with PA-1 [2] were 53.7%, 50.1% and 69.8%, respectively. In data set [3], the inhibition at 24 h, 10 µM was 4.3%. Also, the inhibition entry in the data set on PANC-1 [6], in the data set with PANC-1 [7] and with PANC-1 [8] was “Active” each time. Further, the concentration for half-maximal inhibition (IC50) in data set [9] was more than 10 µM; in data set [15], 3.7 µM. Besides, the Activity result in data set [10] is “Non-Toxic”; in data set [11], “Non-Toxic”; in data set [12] it was “Non-Toxic”; in data set [13] it was “Non-Toxic”; in [14], “Non-Toxic”; in data set [4], -45.6 kJ/mol. The compound further registered an Activity in [5] of -41.4 kJ/mol.
Take `CC(C)c1nc(N(C)S(C)(=O)=O)nc(-c2ccc(F)cc2)c1COCc1cc2ccc(Cl)cc2c(=O)o1`: the values for the inhibition at 10 µM in the data set with HCT-116 [1], with HepG2 and with PA-1 [2] were 23.4%, 20.6% and 20.9%, respectively. The inhibition at 24 h, 10 µM in [3] was determined as 2.3%.
Consider `Cc1ccc2c(c1)C(=O)O/C2=C\COCc1c(-c2ccc(F)cc2)nc(N(C)S(C)(=O)=O)nc1C(C)C`, for which the figures for the inhibition at 10 µM in the data set with HCT-116 [1], in the data set on HepG2 and in the data set with PA-1 [2] were 24.3%, 29.6% and 22.5%, respectively. In data set [3], the inhibition at 24 h, 10 µM was 1.6%.
The corresponding values for `COc1ccc2c(c1)C(=O)O/C2=C\COCc1c(-c2ccc(F)cc2)nc(N(C)S(C)(=O)=O)nc1C(C)C` are 33.5%, 39.3%, 46.5% and 3.2%.
As for `CC(C)c1nc(N(C)S(C)(=O)=O)nc(-c2ccc(F)cc2)c1COC/C=C1\OC(=O)c2ccc(Cl)cc21`, the values for the inhibition at 10 µM with HCT-116 [1], in the data set on HepG2 and in the data set with PA-1 [2] were 29.3%, 12.6% and 19.4%, respectively. Further, the inhibition at 24 h, 10 µM in data set [3] was 3.3%.
For `Cc1cc(Cl)cc2c1/C(=C/COCc1c(-c3ccc(F)cc3)nc(N(C)S(C)(=O)=O)nc1C(C)C)OC2=O` the same measures were 16%, 14.1%, 18.4% and 2.2%.
For `COc1ccc2cc(COCc3c(-c4ccc(F)cc4)nc(N(C)S(C)(=O)=O)nc3C(C)C)oc(=O)c2c1` the same measures were 43.2%, 39.1%, 38.3% and 3.7%.
For `COc1ccc2c(=O)oc(COCc3c(-c4ccc(F)cc4)nc(N(C)S(C)(=O)=O)nc3C(C)C)cc2c1` the same measures were 41.8%, 39.7%, 40.1% and 3.4%.
Regarding `COc1cccc2c1/C(=C/COCc1c(-c3ccc(F)cc3)nc(N(C)S(C)(=O)=O)nc1C(C)C)OC2=O`, the results for the inhibition at 10 µM in the data set on HCT-116 [1], in the data set on HepG2 and with PA-1 [2] were 25.4%, 26.5% and 24.3%, respectively. Besides, the inhibition at 24 h, 10 µM in [3] turned out to be 4.1%.
Regarding `CC(C)c1nc(N(C)S(C)(=O)=O)nc(-c2ccc(F)cc2)c1COC/C=C1\OC(=O)c2ccccc21`, the values for the inhibition at 10 µM in the data set on HCT-116 [1], in the data set on HepG2 and in the data set with PA-1 [2] were 20.2%, 19.3% and 52.3%, respectively. In addition, the inhibition at 24 h, 10 µM in [3] is 2.1%.
Regarding `COc1cc2cc(COCc3c(-c4ccc(F)cc4)nc(N(C)S(C)(=O)=O)nc3C(C)C)oc(=O)c2cc1OC`, the inhibition at 10 µM in the data set on HCT-116 [1] worked out at 65.6%; with HepG2, 48.7%; in the data set with PA-1 [2], 68.4%. In [3], the inhibition at 24 h, 10 µM is 4.9%. Besides, the IC50 is 0.00451 µM in the data set on HCT-116 [16], 0.00076 µM with PA-1 [17], more than 10 µM in [9] and 4.3 µM in data set [15]. Also, the inhibition entry in the data set on PANC-1 [6], in the data set with PANC-1 [7] and with PANC-1 [8] was “Active” in each case. The remaining at 1 h in [18] came to 47.2%. Besides, the half-life in data set [19] was determined as 1.83 h. The microsomal CLint in data set [20] turned out to be 26.3 µL/min/mg. Besides, the Activity entry in data set [10] was “Non-Toxic”; in [11] it was “Non-Toxic”; in data set [12] it was “Non-Toxic”; in [13], “Non-Toxic”; in data set [14], “Non-Toxic”; in [4], -47.3 kJ/mol. The Activity in [5] is -44.4 kJ/mol.
With `CC(C)c1nc(N(C)S(C)(=O)=O)nc(-c2ccc(F)cc2)c1COCc1cc2ccc(F)cc2c(=O)o1`, the inhibition at 10 µM turned out to be 36.9% in the data set with HCT-116 [1], 33.2% in the data set on HepG2 and 28.9% in the data set on PA-1 [2]. Further, the inhibition at 24 h, 10 µM in [3] was 3.1%.
For `CC(C)c1nc(N(C)S(C)(=O)=O)nc(-c2ccc(F)cc2)c1COC/C=C1\OC(=O)c2ccc(F)cc21` the same measures were 19.8%, 27.5%, 15.1% and 1.7%.

As a reminder, the inhibition is the relative decrease from the control value, in per cent. As a reminder, the IC50 is the concentration that gives 50% inhibition. What is called half-life is the time needed for the level to fall by half in the phase considered.

For the origin of these results see ChEMBL document CHEMBL4706498, “Rosuvastatin based novel 3-substituted isocoumarins / 3-alkylidenephthalides: Ultrasound assisted synthesis and identification of new anticancer agents” (Eur J Med Chem, 2020).
